Assay in all cases: Kinase inhibitor library screening, PrestoBlue cell viability, 1 or 10 μM, 72 h
One assay has as its system 501Mel cells (parental). Particulars: for Cell viability in kinase inhibitor library screening, 501Mel Parental, 1μΜ / Cell viability in kinase inhibitor library screening, 501Mel Parental, 10μΜ / cell viability (kinase inhibitor library screening): 501Mel Parental. The method, boiled down:
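Kinase inhibitors added at two fixed concentrations; 72 h exposure; PrestoBlue readout; % viability vs untreated; n ≥ 2 per line.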

Assay [1] has as its system 501Mel-GP cells (Dabrafenib-resistant). The note with it: for Cell viability in kinase inhibitor library screening, 501Mel GP, 1μΜ / Cell viability in kinase inhibitor library screening, 501Mel GP, 10μΜ / cell viability (kinase inhibitor library screening): 501Mel GP.
The subject of assay [2] is 501Mel-XP cells (Vemurafenib-resistant). Particulars: for Cell viability in kinase inhibitor library screening, 501Mel XP, 1μΜ / Cell viability in kinase inhibitor library screening, 501Mel XP, 10μΜ / cell viability (kinase inhibitor library screening): 501Mel XP.
In another assay the test system is A375 cells (parental). Particulars: for Cell viability in kinase inhibitor library screening, A375 Parental, 10μΜ / Cell viability in kinase inhibitor library screening, A375 Parental, 1μΜ / cell viability (kinase inhibitor library screening): A375 Parental.
In assay [3] the test system is A375-GP cells (Dabrafenib-resistant). The note with it: for Cell viability in kinase inhibitor library screening, A375 GP, 1μΜ / Cell viability in kinase inhibitor library screening, A375 GP, 10μΜ / cell viability (kinase inhibitor library screening): A375 GP.
The subject of assay [4] is A375-XP cells (Vemurafenib-resistant). Particulars: for Cell viability in kinase inhibitor library screening, A375 XP, 1μΜ / Cell viability in kinase inhibitor library screening, A375 XP, 10μΜ / cell viability (kinase inhibitor library screening): A375 XP.
Another assay has as its system IGR37 cells (parental). The note with it: for Cell viability in kinase inhibitor library screening, IGR37 Parental, 1μΜ / Cell viability in kinase inhibitor library screening, IGR37 Parental, 10μΜ / cell viability (kinase inhibitor library screening): IGR37 Parental.
The test system of assay [5] is IGR37-GP cells (Dabrafenib-resistant). Particulars: for Cell viability in kinase inhibitor library screening, IGR37 GP, 10μΜ / Cell viability in kinase inhibitor library screening, IGR37 GP, 1μΜ / cell viability (kinase inhibitor library screening): IGR37 GP.
In assay [6] the test system is IGR37-XP cells (Vemurafenib-resistant). Particulars: for Cell viability in kinase inhibitor library screening, IGR37 XP, 10μΜ / Cell viability in kinase inhibitor library screening, IGR37 XP, 1μΜ / cell viability (kinase inhibitor library screening): IGR37 XP.

Regarding `Nc1ccc(-c2ccc3ncc4ccc(=O)n(-c5cccc(C(F)(F)F)c5)c4c3c2)cn1` [Torin 2], the “Cell viability in kinase inhibitor library screening, 501Mel Parental, 1μΜ” value with 501Mel cells (parental) (1μΜ, 72 h, in %) is 5.6. Further, the “Cell viability in kinase inhibitor library screening, 501Mel Parental, 10μΜ” value with 501Mel cells (parental) (10μΜ, 72 h, in %) is on record as 0.8. Moreover, the “Cell viability in kinase inhibitor library screening, 501Mel GP, 1μΜ” value in assay [1] (1μΜ, 72 h, in %) is listed as 10.9. In addition, in assay [1] (10μΜ, 72 h, in %), the “Cell viability in kinase inhibitor library screening, 501Mel GP, 10μΜ” value turned out to be 0.7. The “Cell viability in kinase inhibitor library screening, 501Mel XP, 1μΜ” value in [2] (1μΜ, 72 h, in %) is on record as 3.5. Further, the “Cell viability in kinase inhibitor library screening, 501Mel XP, 10μΜ” value in assay [2] (10μΜ, 72 h, in %) turned out to be 0.164. In addition, in the assay on A375 cells (parental) (10μΜ, 72 h), the “Cell viability in kinase inhibitor library screening, A375 Parental, 10μΜ” value stood at 3.6. Moreover, in the assay with A375 cells (parental) (1μΜ, 72 h), the “Cell viability in kinase inhibitor library screening, A375 Parental, 1μΜ” value amounted to 10.7. For the same molecule, the “Cell viability in kinase inhibitor library screening, A375 GP, 1μΜ” value in assay [3] (1μΜ, 72 h) was 7.9. Also, in assay [3] (10μΜ, 72 h), the “Cell viability in kinase inhibitor library screening, A375 GP, 10μΜ” value worked out at 4.0. Further, the “Cell viability in kinase inhibitor library screening, A375 XP, 1μΜ” value in [4] (1μΜ, 72 h) amounted to 12.1. For the same molecule, the “Cell viability in kinase inhibitor library screening, A375 XP, 10μΜ” value in [4] (10μΜ, 72 h) is recorded as 2.9. Moreover, in the assay on IGR37 cells (parental) (1μΜ, 72 h, in %), the “Cell viability in kinase inhibitor library screening, IGR37 Parental, 1μΜ” value was found to be 13.2. For the same molecule, in the assay on IGR37 cells (parental) (10μΜ, 72 h, in %), the “Cell viability in kinase inhibitor library screening, IGR37 Parental, 10μΜ” value is listed as 0.851. Also, the Cell viability in kinase inhibitor library screening, IGR37 GP, 10μΜ in assay [5] (10μΜ, 72 h) was found to be 2.7%. Further, in assay [5] (1μΜ, 72 h, in %), the “Cell viability in kinase inhibitor library screening, IGR37 GP, 1μΜ” value is reported as 20.7. Moreover, the Cell viability in kinase inhibitor library screening, IGR37 XP, 10μΜ in [6] (10μΜ, 72 h) was 1.3%. Further, in [6] (1μΜ, 72 h, in %), the “Cell viability in kinase inhibitor library screening, IGR37 XP, 1μΜ” value is reported as 14.1.

On to `COC(=O)Nc1ccc(-c2nc(N3CCOCC3)c3cnn(C4CCN(C(=O)OC)CC4)c3n2)cc1` [WYE-354], for which the “Cell viability in kinase inhibitor library screening, 501Mel Parental, 1μΜ” value in the assay on 501Mel cells (parental) (1μΜ, 72 h, in %) was 85.1. Further, the “Cell viability in kinase inhibitor library screening, 501Mel Parental, 10μΜ” value in the assay with 501Mel cells (parental) (10μΜ, 72 h, in %) is on record as 21.3. Besides, the “Cell viability in kinase inhibitor library screening, 501Mel GP, 1μΜ” value in assay [1] (1μΜ, 72 h, in %) was determined as 76.5. Besides, the “Cell viability in kinase inhibitor library screening, 501Mel GP, 10μΜ” value in [1] (10μΜ, 72 h, in %) is 16.5. The “Cell viability in kinase inhibitor library screening, 501Mel XP, 1μΜ” value in [2] (1μΜ, 72 h, in %) is reported as 63.3. For the same molecule, in [2] (10μΜ, 72 h, in %), the “Cell viability in kinase inhibitor library screening, 501Mel XP, 10μΜ” value amounted to 8.7. Also, the “Cell viability in kinase inhibitor library screening, A375 Parental, 10μΜ” value with A375 cells (parental) (10μΜ, 72 h) is 24.6. Moreover, in the assay with A375 cells (parental) (1μΜ, 72 h), the “Cell viability in kinase inhibitor library screening, A375 Parental, 1μΜ” value turned out to be 84.7. For the same molecule, in assay [3] (1μΜ, 72 h), the “Cell viability in kinase inhibitor library screening, A375 GP, 1μΜ” value came out at 80.7. In assay [3] (10μΜ, 72 h), the “Cell viability in kinase inhibitor library screening, A375 GP, 10μΜ” value was 21.5. Besides, in [4] (1μΜ, 72 h), the “Cell viability in kinase inhibitor library screening, A375 XP, 1μΜ” value came out at 76.7. Further, in assay [4] (10μΜ, 72 h), the “Cell viability in kinase inhibitor library screening, A375 XP, 10μΜ” value was 19.6. In addition, the “Cell viability in kinase inhibitor library screening, IGR37 Parental, 1μΜ” value with IGR37 cells (parental) (1μΜ, 72 h, in %) stood at 82.1. In the assay on IGR37 cells (parental) (10μΜ, 72 h, in %), the “Cell viability in kinase inhibitor library screening, IGR37 Parental, 10μΜ” value was 28.9. For the same molecule, the Cell viability in kinase inhibitor library screening, IGR37 GP, 10μΜ in assay [5] (10μΜ, 72 h) stood at 31.6%. For the same molecule, the “Cell viability in kinase inhibitor library screening, IGR37 GP, 1μΜ” value in assay [5] (1μΜ, 72 h, in %) came out at 85.9. In [6] (10μΜ, 72 h), this molecule had a Cell viability in kinase inhibitor library screening, IGR37 XP, 10μΜ of 10.6%. Moreover, the “Cell viability in kinase inhibitor library screening, IGR37 XP, 1μΜ” value in [6] (1μΜ, 72 h, in %) was determined as 82.2.

On to `Oc1cc(O)cc(/C=C/c2ccc(O)c(O)c2)c1` [Piceatannol], for which the “cell viability (kinase inhibitor library screening)” value in the assay with 501Mel cells (parental) (1μΜ, in %) is recorded as 98.4; in the assay on 501Mel cells (parental) (10μΜ, in %), 84.8; in assay [1] (1μΜ, in %), 95.8; in assay [1] (10μΜ, in %), 80.4; in [2] (1μΜ, in %), 96.8; in [2] (10μΜ, in %) it was 81.1. The “cell viability (kinase inhibitor library screening)” value with A375 cells (parental) (1μΜ, in %) was determined as 98.9; in the assay with A375 cells (parental) (10μΜ, in %), 76.1; in [3] (1μΜ, in %) it was 93.0; in assay [3] (10μΜ, in %) it was 80.7; in assay [4] (1μΜ, in %), 98.5; in assay [4] (10μΜ, in %) it was 89.0. Further, the “cell viability (kinase inhibitor library screening)” value in the assay with IGR37 cells (parental) (1μΜ, in %) was found to be 98.6; with IGR37 cells (parental) (10μΜ, in %), 86.6; in [5] (1μΜ, in %) it was 91.5; in [5] (10μΜ, in %) it was 85.8; in assay [6] (1μΜ, in %), 92.0; in assay [6] (10μΜ, in %), 82.4.

For `CCS(=O)(=O)N1CC(CC#N)(n2cc(-c3ncnc4[nH]ccc34)cn2)C1` [Baricitinib (LY3009104)], the viability at 1 µM with 501Mel cells (parental) (Homo sapiens, 72 h, read-out: cell viability, 501Mel Parental, 1μΜ) came to 95%; in assay [1] (Homo sapiens, 72 h, read-out: cell viability, 501Mel GP, 1μΜ), 104%; in assay [2] (Homo sapiens, 72 h, read-out: cell viability, 501Mel XP, 1μΜ), 98.5%; with A375 cells (parental) (Homo sapiens, A-375, 72 h, read-out: cell viability, A375 Parental, 1μΜ), 103%; in assay [3] (Homo sapiens, A-375, 72 h, read-out: cell viability, A375 GP, 1μΜ) it was 106%; in assay [4] (Homo sapiens, A-375, 72 h, read-out: cell viability, A375 XP, 1μΜ), 105%. For the same molecule, the viability at 1 µM in the assay with IGR37 cells (parental) (Homo sapiens, IGR-37, 72 h, read-out: cell viability, IGR37 Parental, 1μΜ) came to 99.6%; in [5] (Homo sapiens, IGR-37, 72 h, read-out: cell viability, IGR37 GP, 1μΜ), 92%; in assay [6] (Homo sapiens, IGR-37, 72 h, read-out: cell viability, IGR37 XP, 1μΜ), 96.5%. Further, the viability at 10 µM in the assay on 501Mel cells (parental) (Homo sapiens, 72 h, read-out: cell viability, 501Mel Parental, 10μΜ) is 88.9%; in assay [1] (Homo sapiens, 72 h, read-out: cell viability, 501Mel GP, 10μΜ), 83.8%; in assay [2] (Homo sapiens, 72 h, read-out: cell viability, 501Mel XP, 10μΜ), 74.5%; in the assay with A375 cells (parental) (Homo sapiens, A-375, 72 h, read-out: cell viability, A375 Parental, 10μΜ) it was 94.8%; in assay [3] (Homo sapiens, A-375, 72 h, read-out: cell viability, A375 GP, 10μΜ) it was 88.4%; in assay [4] (Homo sapiens, A-375, 72 h, read-out: cell viability, A375 XP, 10μΜ), 102%. Also, the viability at 10 µM was determined as 98.8% in the assay with IGR37 cells (parental) (Homo sapiens, IGR-37, 72 h, read-out: cell viability, IGR37 Parental, 10μΜ); 91.5% in assay [5] (Homo sapiens, IGR-37, 72 h, read-out: cell viability, IGR37 GP, 10μΜ); 75.3% in [6] (Homo sapiens, IGR-37, 72 h, read-out: cell viability, IGR37 XP, 10μΜ).

For the molecule `CCCCOc1c(C(=O)c2c(F)cc(C)cc2F)c[nH]c2nncc1-2` [BMS-265246], the “cell viability (kinase inhibitor library screening)” value in the assay on 501Mel cells (parental) (1μΜ, 72 h) stood at 92.4%; in the assay on 501Mel cells (parental) (10μΜ, 72 h), 77.7%; in assay [1] (1μΜ, 72 h) it was 94.2%; in assay [1] (10μΜ, 72 h), 52.8%; in assay [2] (1μΜ, 72 h), 87.1%; in [2] (10μΜ, 72 h), 32.9%. Moreover, the “cell viability (kinase inhibitor library screening)” value is on record as 49.0% in the assay with A375 cells (parental) (10μΜ, 72 h); 91.4% in the assay on A375 cells (parental) (1μΜ, 72 h); 93.5% in assay [3] (1μΜ, 72 h); 40.3% in [3] (10μΜ, 72 h); 94.5% in assay [4] (1μΜ, 72 h); 71.7% in assay [4] (10μΜ, 72 h). Further, the “cell viability (kinase inhibitor library screening)” value in the assay with IGR37 cells (parental) (1μΜ, 72 h) came out at 91.7%; in the assay on IGR37 cells (parental) (10μΜ, 72 h), 91.8%; in [5] (1μΜ, 72 h), 90.7%; in assay [5] (10μΜ, 72 h) it was 83.4%; in assay [6] (1μΜ, 72 h) it was 85.9%; in assay [6] (10μΜ, 72 h) it was 48.1%.

The viability is a read-out of living cells in per cent, often relative to untreated cells.
